5 compounds from US7747390B2, “Digital cell” (National Institute of Advanced Industrial Science and …, priority 2003, dated 2010) can be followed below.

Experiment [1] concerns cells resistant or sensitive to the anticancer agent. Description: Time-lapse profiles of cells exposed to anticancer agent. It counts as cell-based. The settings on record: cisplatin 1 μM, 5 μM, 10 μM in medium. The protocol: In this example, cisplatin was used as an exemplary anticancer agent and was mixed into the medium of exposed cells. The concentration of the anticancer agent was selected as appropriate, such as 1 μM, 5 μM, 10 μM, and the like, to observe the reaction of the cells. Cisplatin was applied to cells resistant or sensitive to the anticancer agent. Time-lapse observation was conducted to produce profiles as in the above-described examples.

The next experiment deals with HEK293 cells. Description: Solid phase transfection with actin-like acting substances (FIG. 1). It counts as cell-based, human. The conditions noted are these: pEGFP-N1, Effectene reagent, gelatin as control. The procedure: (§1) The final concentration of DNA was adjusted to 1 μg/μL. An actin-like acting substance was preserved as a stock having a concentration of 10 μg/μL in ddH2O. All dilutions were made using PBS, ddH2O, or Dulbecco's MEM. A series of dilutions, for example, 0.2 μg/μL, 0.27 μg/μL, 0.4 μg/μL, 0.53 μg/μL, 0.6 μg/μL, 0.8 μg/μL, 1.0 μg/μL, 1.07 μg/μL, 1.33 μg/μL, and the like, were formulated.
(§2) Transfection reagents and DNA were mixed to form a DNA-transfection reagent complex. Formation of the complex requires a certain period of time. Therefore, the mixture was spotted onto a solid phase support (e.g., a poly-L-lysine slide) using an arrayer. In Example 2, as a solid phase support, an APS slide, a MAS slide, and an uncoated slide were used as well as a poly-L-lysine slide. These slides are available from Matsunami Glass (Kishiwada, Japan) or the like.
(§3) 300 μL of DNA concentrated buffer (EC buffer)+16 μL of an enhancer were mixed in an Eppendorf tube. The mixture was mixed with a Vortex, followed by incubation for 5 minutes. 50 μL of a transfection reagent (Effectene, etc.) was added to the mixture, followed by mixing by pipetting. To apply a transfection reagent, an annular wax barrier was formed around the spots on the slide. 366 μL of the mixture was added to the spot region surrounded by the wax, followed by incubation at room temperature for 10 to 20 minutes. Thereby, the fixation to the support was manually achieved.
(§4) The growing cells were distributed to a concentration of 10^7 cells/25 mL. The cells were plated on the slide in a 100×100×15 mm squared Petri dish or a 100 mm (radius)×15 mm circular dish. Transfection was conducted for about 40 hours. This period of time corresponded to about 2 cell cycles. The slide was treated for immunofluorescence.
(§5) To quantify transfection efficiency, the present inventors use a DNA microarray scanner (GeneTAC UC4×4, Genomic Solutions Inc., MI). Total fluorescence intensity (arbitrary unit) was measured, and thereafter, fluorescence intensity per unit surface area was calculated.

Experiment [2] has as its system cells on transfection array. Description: Transfection efficiency when fibronectin fragments were used (FIGS. 2-4). Type of experiment: cell-based. The conditions noted are these: fibronectin fragments or RGD peptide as actin-like acting substance. The procedure:
as §1, §2
300 μL of DNA concentrated buffer (EC buffer)+16 μL of an enhancer were mixed in an Eppendorf tube. The mixture was mixed with a Vortex, followed by incubation for 5 minutes. 50 μL of a transfection reagent (Effectene, etc.) was added to the mixture, followed by mixing by pipetting. […]
as §5

Experiment [3] has as its system cells on transfection array. Description: Transfection at various fibronectin concentrations on coated and uncoated slides (FIG. 7). It counts as cell-based. The procedure:
as §1, §2, §3, §4, §5

Experiment [4] concerns human mesenchymal stem cells (hMSC). Description: Cell adhesion profile and cross-sectional confocal observation in presence or absence of fibronectin (FIGS. 8-10). It counts as cell-based.

Bounds are passed on as bounds.

With `N.N.[Cl][Pt][Cl]` [cisplatin], the time-lapse profiles result in experiment [1] was “varied depending on the difference in cisplatin concentration and resistance/sensitivity”.

As to “RGD peptide (tripeptide) [reference compound]”, in the experiment on HEK293 cells, the “transfection (transfection efficiency)” value is given as “substantially no effect”. Besides, the transfection activity result in experiment [2] is reported as “increased transfection efficiency was not exhibited”.

For fibronectin, the “transfection (transfection efficiency)” value in the experiment on HEK293 cells is given as “transfection took place to a significant level”. In addition, the “fibronectin concentration at which the effect was further increased” value in experiment [3] (APS coating) was more than 1.07 µg/µL. Moreover, the “fibronectin concentration at which transfection efficiency reached a plateau” value in experiment [3] (PLL coating) and in experiment [3] (absence of coating) was “more than 0.53 μg/μL” in each case. The “transfection efficiency versus fibronectin concentration” value in experiment [3] (fibronectin 0, 0.27, 0.53, 0.8, 1.07, 1.33 μg/μL, FIG. 7) is listed as “increased with an increase in fibronectin concentration”. Further, the “surface area of the nucleus” value in experiment [4] (in the presence of fibronectin, FIG. 10) was “significantly increased”. Moreover, the “extension of adherent cells” value in experiment [4] (initial 3 hours of culture in the presence of fibronectin, FIG. 9) was “full extension of cells”.

Take gelatin [reference compound]: the “transfection (transfection efficiency)” value in the experiment with HEK293 cells was “not very successful”.

Regarding laminin, in the experiment with HEK293 cells, the “transfection (transfection efficiency)” value is “transfection took place to a significant level”.
